Usually GI50 stands for the concentration that inhibits growth by half.

From patent publication US8178577B2, “Tricyclic derivatives as potent and selective histone deacetylase inhibitors” (Shenzhen Chipscreen Biosciences Ltd., priority 2008, dated 2012) come the findings set out here.

Assay [1] deals with T1, HDAC3 (Homo sapiens, UniProt O15379).
T1 construct: endogenous in cells; host or cells: HeLa
The assay is described as follows: gdf11 reporter gene assay in HeLa cells. The format is cell-based. Particulars: HeLa, 24 h, read-out: % of SAHA Response for HDAC3 at 10 μM (gdf11 reporter gene). How it is done: (§1) HDAC subtype selectivity inhibition assay of tested compounds was carried out by several reporter gene assays experiments. Briefly, HeLa cells were seeded in 96-well plates the day before transfection to give a confluence of 50-80%. Cells were transfected with one of reporter gene plasmids containing a promoter sequences or response elements upstream of a luciferase gene construct using FuGene6 transfection reagent according to the manufacturer's instructions (Roche). The promoter or response elements including p21-promoter, gdf11-promoter, serum response element (SRE), MEF-binding element were fused upstream to the luciferase gene reporter construct. For normalizing the transfection efficiency, a GFP expression plasmid was cotransfected. Cells were allowed to express protein for 24 hours followed by addition of individual compounds or the vehicle (DMSO). 24 hours later the cells were harvested, and the luciferase assays were performed using the luciferase assay kit according to the manufacturer's instructions (Promega). To normalize the data from the luciferase assays, β-galactosidase activity from transfected cells was measured using a kit (Promega) as instructed by the manufacturer.

Assay [2] relates to A549. The assay is described as follows: Cell proliferation (MTS), A549. It counts as cell-based. The note with it: Homo sapiens, 72 hours. Here is the method: (§2) Measurement of In Vivo Cell Proliferation:
(§3) Tumor cells were trypsinized and plated into 96-well plates at 3,000 per well and incubated in complete medium with 10% FBS for 24 hours. Compounds were added over a final concentration range of 100 μmol/L to 100 nmol/L in 0.1% DMSO and incubated for 72 hours in complete medium. The effects on proliferation were determined by addition of MTS reagent (Promega) according to the instruction, incubation for 2 hours at 37° C. in CO2 incubator, and record the absorbance at 490 nm using an ELISA plate reader.

Assay [3] relates to HDAC4/5. Description: MEF2 reporter gene assay in HeLa cells. It counts as cell-based. Particulars: relative to SAHA, 24 hours. How it is done:
as §1
In general terms: A reporter such as luciferase makes a cellular process visible.

For assay [4], the system named is Hut-78. Description: Cell proliferation (MTS), Hut-78. It counts as cell-based. The note with it: Homo sapiens, HuT78, 72 hours. How it is done: as §2, §3
Assay [5] deals with HDAC Class I. Description: P21 reporter gene assay in HeLa cells. The note with it: relative to SAHA, 24 hours. It counts as cell-based. Here is the method:
as §1

Assay [6] relates to total HDAC enzyme. Description: In vitro inhibition of total HDAC enzyme activity (BIOMOL HDAC Fluorimetric Assay/Drug Discovery Kit, HeLa extract). The format is biochemical. How it is done:
Measurement of In Vitro Inhibition of Total HDAC Enzyme Activity:
The in vitro inhibition of total HDAC enzyme was determined by HDAC Fluorimetric Assay/Drug Discovery Kit (BIOMOL) according to manufacture's instruction. • 1. Add Assay buffer, diluted trichostatin A or test inhibitor to appropriate wells of the microtiter plate. Following table lists examples of various assay types and the additions required for each test.
• 2. Add diluted HeLa extract or other HDAC sample to all wells except those that are to be “No Enzyme Controls” (Blank). • 3. Allow diluted Fluor de LYS™ Substrate and the samples in the microtiter plate to equilibrate to assay temperature (25° C.). • 4. Initiate HDAC reactions by adding diluted substrate (25 μl) to each well and mixing thoroughly. • 5. Allow HDAC reactions to proceed for desired length of time and then stop them by addition of Fluor de Lys™ Developer (50 μl). Incubate plate at room temperature (25° C.) for 10-15 min. • 6. Read samples in a microtiter-plate reading fluorimeter capable of excitation at a wavelength in the range 350-380 nm and detection of emitted light in the range 440-460 nm. Measurement of In Vivo Inhibition of HDAC Subtype Activity: […]

T1 sequence (O15379 whole entry): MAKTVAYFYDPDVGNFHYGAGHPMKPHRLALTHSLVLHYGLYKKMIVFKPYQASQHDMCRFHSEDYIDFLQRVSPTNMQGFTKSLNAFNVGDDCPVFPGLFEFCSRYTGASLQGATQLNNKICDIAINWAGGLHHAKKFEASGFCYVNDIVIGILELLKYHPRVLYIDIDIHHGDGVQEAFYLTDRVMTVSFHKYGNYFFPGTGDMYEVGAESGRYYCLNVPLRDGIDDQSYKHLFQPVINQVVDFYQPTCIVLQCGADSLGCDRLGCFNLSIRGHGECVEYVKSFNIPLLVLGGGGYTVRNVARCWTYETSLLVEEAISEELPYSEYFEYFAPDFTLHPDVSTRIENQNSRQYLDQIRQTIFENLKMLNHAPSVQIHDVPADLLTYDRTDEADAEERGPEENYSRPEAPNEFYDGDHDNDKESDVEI
T1 sequence (Q9Y618 whole entry partner): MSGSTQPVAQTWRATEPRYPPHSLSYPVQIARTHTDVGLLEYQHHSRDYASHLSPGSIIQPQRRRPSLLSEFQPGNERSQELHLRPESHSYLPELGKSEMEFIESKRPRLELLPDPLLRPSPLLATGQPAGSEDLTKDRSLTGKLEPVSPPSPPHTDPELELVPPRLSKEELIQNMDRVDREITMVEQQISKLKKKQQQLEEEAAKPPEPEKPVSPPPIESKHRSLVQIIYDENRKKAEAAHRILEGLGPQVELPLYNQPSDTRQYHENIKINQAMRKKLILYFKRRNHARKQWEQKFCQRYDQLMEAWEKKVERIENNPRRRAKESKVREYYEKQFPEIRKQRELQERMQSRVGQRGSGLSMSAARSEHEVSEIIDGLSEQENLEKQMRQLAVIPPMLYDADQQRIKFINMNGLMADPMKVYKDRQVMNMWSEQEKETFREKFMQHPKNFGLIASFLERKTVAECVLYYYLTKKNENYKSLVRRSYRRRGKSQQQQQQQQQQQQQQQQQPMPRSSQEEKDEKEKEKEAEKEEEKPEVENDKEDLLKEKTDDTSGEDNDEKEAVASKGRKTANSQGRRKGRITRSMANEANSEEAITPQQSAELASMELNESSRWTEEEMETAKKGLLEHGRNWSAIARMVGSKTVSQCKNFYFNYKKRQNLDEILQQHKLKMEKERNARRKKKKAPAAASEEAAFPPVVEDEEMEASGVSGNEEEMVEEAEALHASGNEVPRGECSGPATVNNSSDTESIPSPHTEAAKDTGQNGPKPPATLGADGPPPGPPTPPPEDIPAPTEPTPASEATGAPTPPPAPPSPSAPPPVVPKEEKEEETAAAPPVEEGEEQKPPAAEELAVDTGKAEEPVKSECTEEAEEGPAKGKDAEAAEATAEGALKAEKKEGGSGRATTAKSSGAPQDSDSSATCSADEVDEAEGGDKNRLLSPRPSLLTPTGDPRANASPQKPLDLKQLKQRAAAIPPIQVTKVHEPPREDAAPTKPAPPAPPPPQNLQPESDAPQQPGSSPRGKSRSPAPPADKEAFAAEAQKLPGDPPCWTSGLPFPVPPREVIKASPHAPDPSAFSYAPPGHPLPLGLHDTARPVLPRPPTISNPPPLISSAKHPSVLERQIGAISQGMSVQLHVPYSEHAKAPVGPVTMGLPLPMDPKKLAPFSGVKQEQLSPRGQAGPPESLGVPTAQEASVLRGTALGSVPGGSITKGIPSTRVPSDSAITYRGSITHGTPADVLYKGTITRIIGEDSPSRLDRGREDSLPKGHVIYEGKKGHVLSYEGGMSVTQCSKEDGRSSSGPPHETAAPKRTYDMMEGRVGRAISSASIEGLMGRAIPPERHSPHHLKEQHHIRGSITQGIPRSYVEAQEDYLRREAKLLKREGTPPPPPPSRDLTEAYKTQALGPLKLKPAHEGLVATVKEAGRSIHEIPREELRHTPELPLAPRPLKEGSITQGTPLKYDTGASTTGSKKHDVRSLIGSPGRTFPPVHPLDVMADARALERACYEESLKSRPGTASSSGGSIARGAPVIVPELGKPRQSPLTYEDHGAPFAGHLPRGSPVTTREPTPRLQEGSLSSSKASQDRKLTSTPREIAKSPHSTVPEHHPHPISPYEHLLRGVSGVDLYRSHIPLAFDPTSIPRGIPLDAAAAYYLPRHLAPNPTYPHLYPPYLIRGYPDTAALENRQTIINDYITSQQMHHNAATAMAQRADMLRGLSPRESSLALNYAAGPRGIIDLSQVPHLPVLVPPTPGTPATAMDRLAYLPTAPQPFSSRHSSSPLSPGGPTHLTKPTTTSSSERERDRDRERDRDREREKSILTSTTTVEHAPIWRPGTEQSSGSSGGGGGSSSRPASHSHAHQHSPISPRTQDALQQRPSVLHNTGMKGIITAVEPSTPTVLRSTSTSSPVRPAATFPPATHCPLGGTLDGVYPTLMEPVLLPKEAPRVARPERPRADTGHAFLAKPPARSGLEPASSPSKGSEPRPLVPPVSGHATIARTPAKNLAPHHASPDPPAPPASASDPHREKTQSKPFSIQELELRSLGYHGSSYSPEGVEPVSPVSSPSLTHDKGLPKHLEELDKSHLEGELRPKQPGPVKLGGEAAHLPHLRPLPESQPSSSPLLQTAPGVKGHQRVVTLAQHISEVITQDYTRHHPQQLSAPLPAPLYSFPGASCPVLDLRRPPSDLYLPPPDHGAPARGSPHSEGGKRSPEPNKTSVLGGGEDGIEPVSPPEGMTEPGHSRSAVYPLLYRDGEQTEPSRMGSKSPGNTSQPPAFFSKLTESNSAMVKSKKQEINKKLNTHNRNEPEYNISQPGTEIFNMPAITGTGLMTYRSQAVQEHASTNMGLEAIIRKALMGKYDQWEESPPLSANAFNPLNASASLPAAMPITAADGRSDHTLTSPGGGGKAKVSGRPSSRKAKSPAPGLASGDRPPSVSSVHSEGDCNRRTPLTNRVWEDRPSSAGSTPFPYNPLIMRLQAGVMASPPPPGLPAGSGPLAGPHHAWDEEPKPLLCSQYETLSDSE

Take `Nc1cc(F)ccc1NC(=O)CCCCCNC(=O)C=C1c2ccccc2-c2ccccc21` [Example 12, 6-(2-(9H-fluoren-9-ylidene)acetamido)-N-(2-amino-4-fluorophenyl)hexanamide]: the activation at 10 µM in assay [1] worked out at 26%. For the same molecule, the 50% growth inhibitory concentration (GI50) in assay [2] came out at 18.2 µM; in assay [4] it was 3.89 µM. Besides, the “% of SAHA Response for HDAC4/5 at 10 μM (MEF2 reporter gene)” value in assay [3] amounted to 101%. Also, in assay [5], the “% of SAHA Response for HDAC Class I at 10 μM (P21 reporter gene)” value turned out to be 39%. In assay [6], the “% of Inhibition on total HDAC enzyme at 30 μM” value worked out at 50%.

`Nc1ccccc1NC(=O)CCCCCNC(=O)C=C1c2ccccc2-c2ccccc21` [Example 13, 6-(2-(9H-fluoren-9-ylidene)acetamido)-N-(2-aminophenyl)hexanamide]: in assay [1], the activation at 10 µM was 66%. For the same molecule, the GI50 in assay [2] was 4.9 µM; in assay [4] it was 1.35 µM. In addition, the “% of SAHA Response for HDAC4/5 at 10 μM (MEF2 reporter gene)” value in assay [3] is 118%. Also, the “% of SAHA Response for HDAC Class I at 10 μM (P21 reporter gene)” value in assay [5] turned out to be 133%. In assay [6], the “% of Inhibition on total HDAC enzyme at 30 μM” value is on record as 50%.
